Among the data in PubChem BioAssay (NCI) are GI50 and TGI values, retold here.

“And” between values parts separate entries of the source, which are not always exact repeats. Equal entries are not always repeated.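 Values below derive from 48-hour exposures of cells grown in 96-well plates, with endpoints linearly interpolated between the two concentrations bracketing the appropriate inhibition level. GI50 marks 50% less growth. TGI is the concentration that stops growth completely.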

Test systems include U251 CNS; SR leukemia; NCI-H226 lung; 786-0 renal; DU-145 prostate; OVCAR-5 ovarian; HS 578T breast; SW-620 colon; NCI/ADR-RES ovarian; HL-60(TB) leukemia.
Holding throughout (test): DTP human tumour cell line panel, 48 h

A word on the GI50: it is the concentration at which growth is held to half of that of the control. Broadly, the TGI is the concentration at which net growth stops. Read a low TGI as greater sensitivity of the cells. In the case of `COc1cc(C2CC(c3cccc(Br)c3)=NN2C(C)=O)cc(OC)c1OC` (stereo not given), the GI50 with U251 CNS is 454 nM; in the test on SR leukemia, 40.2 nM; with NCI-H226 lung, 11.5 µM; with 786-0 renal, 771 nM; in the test on DU-145 prostate, 0.371 µM; in the test on OVCAR-5 ovarian it was 2.93 µM. Also, the GI50 with HS 578T breast was 397 nM; in the test with SW-620 colon it was 309 nM; with NCI/ADR-RES ovarian, 324 nM; with HL-60(TB) leukemia, 191 nM. Besides, the TGI in the test on U251 CNS was 53.4 µM; with SR leukemia, above 100 µM; in the test on NCI-H226 lung it was above 58.5 µM; with 786-0 renal, above 65.4 µM; in the test with DU-145 prostate, 6.61 µM; in the test on OVCAR-5 ovarian it was above 100 µM. For the same compound, the concentration for total growth inhibition (TGI) with HS 578T breast is above 100 µM; with SW-620 colon, above 100 µM; in the test on NCI/ADR-RES ovarian, 34 µM; with HL-60(TB) leukemia it was 0.553 µM.
Take `O=C(Nc1nc2ccc(C(F)(F)F)cc2s1)c1cc(Cl)ccc1O`: the GI50 is 1440 nM in the test on U251 CNS; 1240 nM in the test with SR leukemia; 1.23 µM with NCI-H226 lung; 2140 nM in the test with 786-0 renal; 1.59 µM with DU-145 prostate; 3.67 µM in the test with OVCAR-5 ovarian. The GI50 is 1230 nM in the test on HS 578T breast, 878 nM with SW-620 colon, 841 nM in the test with NCI/ADR-RES ovarian and 1040 nM in the test on HL-60(TB) leukemia. The TGI was 26.9 µM with U251 CNS; 20.1 µM with SR leukemia; 11.4 µM with NCI-H226 lung; 30.6 µM in the test with 786-0 renal; above 100 µM in the test on DU-145 prostate; above 100 µM with OVCAR-5 ovarian. Besides, the TGI with HS 578T breast was above 100 µM; in the test on SW-620 colon, 36.3 µM; in the test with NCI/ADR-RES ovarian, above 100 µM; in the test with HL-60(TB) leukemia it was 3.7 µM.
Take `CCn1c(-c2nonc2N)nc2c(C#CC(C)(C)O)nc(OC[C@H](N)c3ccccc3)cc21`: the GI50 is 3210 nM with U251 CNS; 6240 nM in the test with SR leukemia; 11.9 µM in the test on NCI-H226 lung; 1910 nM in the test with 786-0 renal; 3.26 µM with DU-145 prostate; 5.69 µM in the test with OVCAR-5 ovarian. The GI50 with HS 578T breast was 1800 nM; with SW-620 colon, 4470 nM; with NCI/ADR-RES ovarian, 5310 nM; in the test with HL-60(TB) leukemia, 5230 nM. Further, the TGI was determined as 6.67 µM with U251 CNS; 16.3 µM in the test with SR leukemia; 15.8 µM in the test with NCI-H226 lung; 5.43 µM with 786-0 renal; 6.47 µM in the test with DU-145 prostate; 9.99 µM in the test on OVCAR-5 ovarian. Also, the TGI was determined as 7.28 µM in the test on HS 578T breast, 8.67 µM in the test with SW-620 colon, 13.9 µM with NCI/ADR-RES ovarian and 10.1 µM in the test on HL-60(TB) leukemia.
Regarding `O=C1NC(=O)C(c2cnc3ccccn23)=C1c1cn2c3c(cc(F)cc13)CN(C(=O)N1CCCCC1)CC2`, the GI50 was 1890 nM in the test with U251 CNS; 1840 nM in the test with SR leukemia; 3.7 µM with NCI-H226 lung; 3050 nM with 786-0 renal; 12.7 µM in the test on DU-145 prostate; 23.5 µM in the test with OVCAR-5 ovarian. Besides, the 50% growth inhibitory concentration (GI50) in the test on HS 578T breast is 11.5 nM; with SW-620 colon it was 14200 nM; in the test with NCI/ADR-RES ovarian, 19700 nM; in the test on HL-60(TB) leukemia it was 8740 nM. The TGI in the test with U251 CNS is 24.3 µM; in the test with SR leukemia, 29.1 µM; in the test with NCI-H226 lung it was 54.8 µM; in the test with 786-0 renal it was above 59.4 µM; in the test with DU-145 prostate, 39.7 µM; in the test on OVCAR-5 ovarian, 64.4 µM. The TGI with HS 578T breast is 60.9 µM; in the test with SW-620 colon it was 45.8 µM; with NCI/ADR-RES ovarian it was above 100 µM; with HL-60(TB) leukemia it was 44.3 µM.
In the case of `N#Cc1c(NN)n(C2OC(CO)C(O)C2O)c2ncnc(N)c12` (stereo not given), the GI50 in the test with U251 CNS is 91.9 nM; with SR leukemia it was 27.2 nM; with NCI-H226 lung, 0.496 µM; in the test with 786-0 renal, 228 nM; with DU-145 prostate it was 0.0375 µM; with OVCAR-5 ovarian, 0.311 µM. Further, the 50% growth inhibitory concentration (GI50) in the test on HS 578T breast is 38.2 nM; in the test with SW-620 colon, 25.4 nM; in the test with NCI/ADR-RES ovarian it was 283 nM; in the test with HL-60(TB) leukemia, 22 nM. Further, the TGI in the test on U251 CNS is above 100 µM; with SR leukemia it was 0.0815 µM; with NCI-H226 lung, 2.91 µM; in the test with 786-0 renal, 4.77 µM; in the test on DU-145 prostate it was 6.26 µM; with OVCAR-5 ovarian, 14.4 µM. The TGI was determined as 0.429 µM in the test on HS 578T breast, 1.18 µM in the test with SW-620 colon, 4.17 µM in the test with NCI/ADR-RES ovarian and 0.109 µM in the test on HL-60(TB) leukemia.
Take `O/N=C/C1C(OCc2ccccc2)C(OCc2ccccc2)C(OCc2ccccc2)CN1Cc1ccccc1` (stereo not given): the concentration for total growth inhibition (TGI) in the test on U251 CNS was 37.5 µM and > 100 µM; with SR leukemia, above 100 µM; in the test with NCI-H226 lung, 33.8 µM and 85.2 µM; with 786-0 renal, 21.1 µM and > 100 µM; in the test on DU-145 prostate, above 100 µM; in the test with OVCAR-5 ovarian, 57.3 µM and > 100 µM. Also, the TGI in the test on HS 578T breast is 96.6 µM and 88.5 µM; with SW-620 colon it was above 100 µM; in the test on NCI/ADR-RES ovarian, 72.5 µM and > 100 µM; with HL-60(TB) leukemia, 80.4 µM. For the same compound, the GI50 with SR leukemia was 8300 nM and 2000 nM; with NCI-H226 lung, 13.7 µM and 4.2 µM; with OVCAR-5 ovarian, 20 µM and 9.34 µM; in the test with HS 578T breast, 21500 nM and 3750 nM; with NCI/ADR-RES ovarian, 7120 nM and 22300 nM.
`O=C(O)C1C2C=CC(O2)C1C(=O)NCc1ccccn1` (stereo not given): the TGI with U251 CNS, in the test with SR leukemia, with NCI-H226 lung, in the test with 786-0 renal, with DU-145 prostate and with OVCAR-5 ovarian was above 100 µM throughout. Further, the TGI in the test on HS 578T breast, with SW-620 colon, in the test on NCI/ADR-RES ovarian and in the test on HL-60(TB) leukemia was above 100 µM each time.
As for `CNC(=O)N(C)N=NCCCl`, the TGI with U251 CNS, in the test with SR leukemia, with NCI-H226 lung, in the test with 786-0 renal, with DU-145 prostate and with OVCAR-5 ovarian was above 100 µM throughout. Also, the TGI with HS 578T breast, in the test on SW-620 colon, in the test on NCI/ADR-RES ovarian and in the test on HL-60(TB) leukemia was above 100 µM in each case.
As for `COc1ccc(C(C)=O)cc1N1C(=O)C2C(C1=O)C1(c3ccccc3)C(=O)C2(c2ccccc2)C(c2ccc(C)cc2)=C1c1ccc(C)cc1` (stereo not given), the GI50 in the test with U251 CNS is above 100000 nM; in the test on SR leukemia, above 100000 nM; with NCI-H226 lung, above 100 µM; in the test with 786-0 renal, above 100000 nM; in the test on DU-145 prostate, above 100 µM; in the test on OVCAR-5 ovarian it was above 100 µM. Moreover, the GI50 in the test on HS 578T breast, with SW-620 colon, in the test with NCI/ADR-RES ovarian and in the test with HL-60(TB) leukemia was above 100000 nM in each case. The TGI in the test on U251 CNS, in the test with SR leukemia, in the test with NCI-H226 lung, with 786-0 renal, in the test with DU-145 prostate and in the test with OVCAR-5 ovarian was above 100 µM in each case. In addition, the TGI with HS 578T breast, in the test on SW-620 colon, with NCI/ADR-RES ovarian and in the test with HL-60(TB) leukemia was above 100 µM in each case.
For `O=C1/C(=C/c2ccc(Br)cc2)COc2ccc(O)c(O)c21`, the GI50 is 588 nM in the test with U251 CNS; 452 nM in the test with SR leukemia; 2.01 µM with NCI-H226 lung; 678 nM in the test on 786-0 renal; 1.31 µM in the test with DU-145 prostate; 1.5 µM in the test with OVCAR-5 ovarian. The GI50 in the test with HS 578T breast was 1540 nM; in the test on SW-620 colon, 671 nM; in the test on NCI/ADR-RES ovarian it was 665 nM; in the test with HL-60(TB) leukemia, 442 nM. For the same compound, the TGI in the test on U251 CNS is 2.04 µM; with SR leukemia, above 100 µM; in the test on NCI-H226 lung, 5.52 µM; with 786-0 renal, 2.57 µM; in the test with DU-145 prostate, 2.9 µM; with OVCAR-5 ovarian, 3.04 µM. Moreover, the TGI with HS 578T breast was 6.77 µM; in the test on SW-620 colon, 2.22 µM; with NCI/ADR-RES ovarian, above 25.8 µM; in the test on HL-60(TB) leukemia, 3.28 µM.
Regarding `CCN(CC)CCCC(CNc1ccnc2cc(Cl)ccc12)c1ccc(Cl)cc1` (stereo not given), the GI50 in the test on U251 CNS is 1540 nM and 950 nM; with SR leukemia it was 337 nM and 307 nM; in the test on NCI-H226 lung, 2.14 µM and 2.55 µM; in the test on 786-0 renal, 1430 nM and 1570 nM; in the test on DU-145 prostate, 3.84 µM and 4.19 µM; with OVCAR-5 ovarian, 2.53 µM and 2.16 µM. Also, the GI50 in the test with HS 578T breast is 1760 nM and 1970 nM; in the test on SW-620 colon, 1430 nM and 1550 nM; with NCI/ADR-RES ovarian, 2020 nM and 2130 nM; in the test on HL-60(TB) leukemia, 1750 nM and 1520 nM. In addition, the TGI with U251 CNS was 3.01 µM and 2.48 µM; in the test on SR leukemia it was 1.38 µM and 1.09 µM; with NCI-H226 lung, 5.81 µM and 8.83 µM; with 786-0 renal it was 2.85 µM and 2.97 µM; in the test on DU-145 prostate it was 15.5 µM and 19 µM; in the test with OVCAR-5 ovarian, 8.25 µM and 6.25 µM. The total growth inhibition concentration (TGI) is 3.82 µM and 4.46 µM in the test on HS 578T breast; 3.02 µM and 3.35 µM in the test on SW-620 colon; 5.14 µM and 5.87 µM in the test with NCI/ADR-RES ovarian; 3.79 µM and 3.62 µM in the test on HL-60(TB) leukemia.
Turning to `COc1cc(C#CC(=O)OC/C=C/c2ccc3c(c2)OCO3)cc(OC)c1OC`, the TGI with U251 CNS is above 100 µM; in the test with SR leukemia, 40.5 µM; in the test on NCI-H226 lung it was 48.5 µM; with 786-0 renal it was above 100 µM; in the test with DU-145 prostate, above 100 µM; with OVCAR-5 ovarian it was above 100 µM. In addition, the TGI came to 51 µM in the test with HS 578T breast, 80.6 µM with SW-620 colon, 47.8 µM in the test with NCI/ADR-RES ovarian and 62.9 µM in the test on HL-60(TB) leukemia.
